Experimental data taken from patent publication US20110038885A1, “CHEMOKINE ANALOGS” (priority 2007, published 2011).
pEC50: −log10 of the molar value. Bridge positions count the residues as written; N and C are the ends. Square brackets hold non-standard residues; d marks the D form. Peptide text beside a SMILES is read from it. * marks the point of attachment. d(pGlu) = O=C1CC[C@H](C(=O)O)N1; Lauroyl = CCCCCCCCCCCC(=O)*; Ac6c = NC1(C(=O)O)CCCCC1; Octanoyl = CCCCCCCC(=O)*; Dap = NC[C@H](N)C(=O)O; AEEA = NCCOCCOCC(=O)O; Butyryl = CCCC(=O)*; X2 = CCCCCCO*

Tests used:
MCP-1 = assay: In vitro chemotaxis (trans-well migration) v MCP-1; type: cell-based, human
How it was run: (§1)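 Trans-well migration toward IL-8 or MCP-1 placed below, with agent added to THP-1 cells (10^4-10^6) in the top well and incubation at 37° C (e.g. 4 hours). MTT absorbance at 595 nm, interpolated on a cell standard curve, gives migrated cell numbers; TGFβ-type negative control and cytotoxicity check included.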

IL-8 = assay: In vitro chemotaxis, inhibition v IL-8; type: cell-based, human; design: concentration or dose not given beside the values
How it was run: as §1

Half-life in rat in vivo = details: for half-life: read-out: T ½ rat in vivo

Structure (SMILES) | pEC50 (MCP-1) | v IL-8 inhibition (%) (IL-8) | half-life (Half-life in rat in vivo) [min] | T ½ rat in vivo (Half-life in rat in vivo) [min]
CC[C@H](C)[C@@H]1NC(=O)[C@H](Cc2c[nH]c3ccccc23)NC(=O)[C@H](CCCCN)NC(=O)[C@H](CCC(N)=O)NC(=O)[C@H](CCCCN)NC(=O)[C@@H]2CCCN2C(=O)[C@H](CC(=O)O)NC(=O)[C@H](CC(C)C)NC(=O)[C@@H](NC(C)=O)CSSC[C@@H](C(N)=O)NC(=O)[C@H](CCC(N)=O)NC1=O [Example 9, Ac-c(Cys-Leu-Asp-Pro-Lys-Gln-Lys-Trp-Ile-Gln-Cys)-NH2] (Ac-CLDPKQKWIQC-NH2; disulfide 1-11) | 8.70 | 102.3 | 5.4 | 
CC[C@H](C)[C@@H]1NC(=O)[C@H](Cc2c[nH]c3ccccc23)NC(=O)[C@H](CCCCN)NC(=O)[C@@H](NC(=O)[C@H]2CCC(=O)N2)CSSC[C@@H](C(N)=O)NC(=O)[C@H](CCC(N)=O)NC1=O [Example 53, DpGlu-c(Cys-Lys-Trp-Ile-Gln-Cys)-NH2] ([d(pGlu)]CKWIQC-NH2; disulfide 2-7) | 8.22 |  | 19.4 | 23.1
CC[C@H](C)[C@@H]1NC(=O)[C@H](Cc2c[nH]c3ccccc23)NC(=O)[C@H](CCCCN)NC(=O)[C@@H](NC(=O)[C@H](CCC(N)=O)NC(C)=O)CSSC[C@@H](C(N)=O)NC(=O)[C@H](CCC(N)=O)NC1=O [Example 54, Ac-Gln-c(Cys-Lys-Trp-Ile-Gln-Cys)-NH2] (Ac-QCKWIQC-NH2; disulfide 2-7) | 8.00 |  | 30.3 | 20.9
CC[C@H](C)[C@@H]1NC(=O)[C@H](Cc2c[nH]c3ccccc23)NC(=O)[C@H](CCCCN)NC(=O)[C@@H](NC(C)=O)CSSC[C@@H](C(N)=O)NC(=O)[C@H](CCC(N)=O)NC1=O [Example 55, Ac-c(Cys-Lys-Trp-Ile-Gln-Cys)-NH2] (Ac-CKWIQC-NH2; disulfide 1-6) | 8.22 |  | 18 | 16.5
CCCCCCCC(=O)NCCCC[C@H](NC(=O)COCCOCCNC(=O)[C@H]1CSSC[C@@H](N)C(=O)N[C@H](CCC(N)=O)C(=O)N[C@H]([C@H](C)CC)C(=O)N[C@H](Cc2c[nH]c3ccccc23)C(=O)N[C@H](CCCCN)C(=O)N[C@H](CCC(N)=O)C(=O)N[C@H](CCCCN)C(=O)N2CCC[C@@H]2C(=O)N[C@H](CC(=O)O)C(=O)N[C@H](CC(C)C)C(=O)N1)C(=O)O [Example 151, c(D-Cys-D-Gln-D-Ile-D-Trp-D-Lys-D-Gln-D-Lys-D-Pro-D-Asp-D-Leu-D-Cys)-Doc-Lys(Nε-octanoyl)-OH] (H-[dC][dQ][dI][dW][dK][dQ][dK][dP][dD][dL][dC][AEEA]K(Octanoyl)-OH; disulfide 1-11) | 7.55 | 103.7 |  | 
CCCCCCCC(=O)NCCCC[C@@H]1NC(=O)[C@@H](CC(C)C)NC(=O)[C@@H](CC(=O)O)NC(=O)[C@H]2CCCN2C(=O)[C@@H](CCCCN)NC(=O)[C@@H](CCC(N)=O)NC(=O)[C@@H](CCCCN)NC(=O)[C@@H](Cc2c[nH]c3ccccc23)NC(=O)[C@@H]([C@H](C)CC)NC(=O)[C@@H](CCC(N)=O)NC(=O)[C@H](N)CSSC[C@H](C(N)=O)NC1=O [Example 153, c(D-Cys-D-Gln-D-Ile-D-Trp-D-Lys-D-Gln-D-Lys-D-Pro-D-Asp-D-Leu-Lys(Nε-octanoyl)-D-Cys)-NH2] (H-[dC][dQ][dI][dW][dK][dQ][dK][dP][dD][dL]K(Octanoyl)[dC]-NH2; disulfide 1-12) | < 6.00 | 4.1 |  | 
CCCCCCCC(=O)NCCCC[C@@H]1NC(=O)[C@@H](CC(=O)O)NC(=O)[C@H]2CCCN2C(=O)[C@@H](CCCCN)NC(=O)[C@@H](CCC(N)=O)NC(=O)[C@@H](CCCCN)NC(=O)[C@@H](Cc2c[nH]c3ccccc23)NC(=O)[C@@H]([C@H](C)CC)NC(=O)[C@@H](CCC(N)=O)NC(=O)[C@H](N)CSSC[C@H](C(=O)O)NC(=O)[C@@H](CC(C)C)NC1=O [Example 154, c(D-Cys-D-Gln-D-Ile-D-Trp-D-Lys-D-Gln-D-Lys-D-Pro-D-Asp-Lys(Nε-octanoyl)-D-Leu-D-Cys)-OH] (H-[dC][dQ][dI][dW][dK][dQ][dK][dP][dD]K(Octanoyl)[dL][dC]-OH; disulfide 1-12) | < 6.00 | 9.8 |  | 
CC(=O)N[C@H]1CSSC[C@@H](C(N)=O)NC(=O)[C@H](CCC(N)=O)NC(=O)C2(CCCCC2)NC(=O)[C@H](Cc2c[nH]c3ccccc23)NC(=O)[C@H](CCCCN)NC(=O)[C@H](CCC(N)=O)NC(=O)[C@H](CCCCN)NC(=O)[C@@H]2CCCN2C(=O)[C@H](CC(=O)O)NC(=O)[C@H](CC(C)C)NC1=O [Example 155, Ac-c(Cys-Leu-Asp-Pro-Lys-Gln-Lys-Trp-A6c-Gln-Cys)-NH2] (Ac-CLDPKQKW[Ac6c]QC-NH2; disulfide 1-11) | < 6.00 | −1.5 |  | 
CC(=O)N[C@H]1CSSC[C@@H](C(N)=O)NC(=O)[C@H](CCC(N)=O)NC(=O)[C@H](Cc2c[nH]c3ccccc23)NC(=O)[C@H](CCCCN)NC(=O)[C@H](CCC(N)=O)NC(=O)[C@H](CCCCN)NC(=O)[C@@H]2CCCN2C(=O)[C@H](CC(=O)O)NC(=O)C2(CCCCC2)NC1=O [Example 156, Ac-c(Cys-A6c-Asp-Pro-Lys-Gln-Lys-Trp-Gln-Cys)-NH2] (Ac-C[Ac6c]DPKQKWQC-NH2; disulfide 1-10) | < 6.00 | 3.1 |  | 
CC[C@H](C)[C@@H]1NC(=O)[C@H](Cc2c[nH]c3ccccc23)NC(=O)[C@H](CCCCN)NC(=O)[C@H](CCC(N)=O)NC(=O)[C@H](CCCCN)NC(=O)[C@@H](NC(C)=O)CSSC[C@@H](C(=O)N2CCC[C@@H]2C(=O)N[C@H](CC(=O)O)C(=O)N[C@H](CC(C)C)C(N)=O)NC(=O)[C@H](CCC(N)=O)NC1=O [Example 157, Ac-c(Cys-Lys-Gln-Lys-Trp-Ile-Gln-Cys)-D-Pro-D-Asp-D-Leu-NH2] (Ac-CKQKWIQC[dP][dD][dL]-NH2; disulfide 1-8) | < 6.00 | −15 |  | 
CC[C@H](C)[C@@H]1NC(=O)[C@H](Cc2c[nH]c3ccccc23)NC(=O)[C@H](CCCCN)NC(=O)[C@H](CCC(N)=O)NC(=O)[C@H](CCCCN)NC(=O)[C@@H]2CCCN2C(=O)[C@@H](NC(C)=O)CSSC[C@@H](C(=O)N[C@H](CC(=O)O)C(=O)N[C@H](CC(C)C)C(N)=O)NC(=O)[C@H](CCC(N)=O)NC1=O [Example 158, Ac-c(Cys-Pro-Lys-Gln-Lys-Trp-Ile-Gln-Cys)-D-Asp-D-Leu-NH2] (Ac-CPKQKWIQC[dD][dL]-NH2; disulfide 1-9) | < 6.00 | −17.9 |  | 
CCCCCCCC(=O)N[C@@H](CN)C(=O)N[C@@H]1CSSC[C@H](C(N)=O)NC(=O)[C@@H](CC(C)C)NC(=O)[C@@H](CC(=O)O)NC(=O)[C@H]2CCCN2C(=O)[C@@H](CCCCN)NC(=O)[C@@H](CCC(N)=O)NC(=O)[C@@H](CCCCN)NC(=O)[C@@H](Cc2c[nH]c3ccccc23)NC(=O)[C@@H]([C@H](C)CC)NC(=O)[C@@H](CCC(N)=O)NC1=O [Example 160, Octanoyl-Dap-c(D-Cys-D-Gln-D-Ile-D-Trp-D-Lys-D-Gln-D-Lys-D-Pro-D-Asp-D-Leu-D-Cys)-NH2] (Octanoyl-[Dap][dC][dQ][dI][dW][dK][dQ][dK][dP][dD][dL][dC]-NH2; disulfide 2-12) | 7.60 | 100.2 |  | 
CCCCCCOC(=O)C[C@H]1NC(=O)[C@H]2CCCN2C(=O)[C@@H](CCCCN)NC(=O)[C@@H](CCC(N)=O)NC(=O)[C@@H](CCCCN)NC(=O)[C@@H](Cc2c[nH]c3ccccc23)NC(=O)[C@@H]([C@H](C)CC)NC(=O)[C@@H](CCC(N)=O)NC(=O)[C@H](N)CSSC[C@H](C(N)=O)NC(=O)[C@@H](CC(C)C)NC1=O [Example 161, c(D-Cys-D-Gln-D-Ile-D-Trp-D-Lys-D-Gln-D-Lys-D-Pro-D-Asp(1-hexanol)-D-Leu-D-Cys)-NH2] (H-[dC][dQ][dI][dW][dK][dQ][dK][dP][dD](X2)[dL][dC]-NH2; disulfide 1-11) | 8.10 | 99.8 |  | 
CC[C@H](C)[C@@H]1NC(=O)[C@H](Cc2c[nH]c3ccccc23)NC(=O)[C@H](CCCCN)NC(=O)[C@H](CCC(N)=O)NC(=O)[C@H](CCCCN)NC(=O)[C@@H]2CCCN2C(=O)[C@H](CC(=O)O)NC(=O)[C@H](CC(C)C)NC(=O)[C@@H](NC(=O)[C@@H](CC(=O)O)NC(=O)[C@H](N)CCCCN)CSSC[C@@H](C(N)=O)NC(=O)[C@H](CCC(N)=O)NC1=O [Example 167, D-Lys-D-Asp-c(Cys-Leu-Asp-Pro-Lys-Gln-Lys-Trp-Ile-Gln-Cys)-NH2] (H-[dK][dD]CLDPKQKWIQC-NH2; disulfide 3-13) | 7.60 | 99.6 |  | 
CCCCCCCCCCCC(=O)NCCCC[C@H](N)C(=O)N[C@H](C(=O)N[C@H]1CSSC[C@@H](C(N)=O)NC(=O)[C@H](CCC(N)=O)NC(=O)[C@H]([C@@H](C)CC)NC(=O)[C@H](Cc2c[nH]c3ccccc23)NC(=O)[C@H](CCCCN)NC(=O)[C@H](CCC(N)=O)NC(=O)[C@H](CCCCN)NC(=O)[C@@H]2CCCN2C(=O)[C@H](CC(=O)O)NC(=O)[C@H](CC(C)C)NC1=O)[C@@H](C)CC [Example 169, Lys(Nε-dodecanoyl)-Ile-c(Cys-Leu-Asp-Pro-Lys-Gln-Lys-Trp-Ile-Gln-Cys)-NH2] (H-K(Lauroyl)ICLDPKQKWIQC-NH2; disulfide 3-13) | < 6.00 | 7.7 |  | 
CCCC(=O)N[C@@H]1CSSC[C@H](C(N)=O)NC(=O)[C@@H](CCCCN)NC(=O)[C@@H](Cc2c[nH]c3ccccc23)NC(=O)[C@@H]([C@H](C)CC)NC(=O)[C@@H](CCC(N)=O)NC1=O [Example 191, nButyryl-c(D-Cys-D-Gln-D-Ile-D-Trp-D-Lys-D-Cys)-NH2] (Butyryl-[dC][dQ][dI][dW][dK][dC]-NH2; disulfide 1-6) | 8.30 |  | 30 | 
